Reference: patent US20230183640A1, “METABOLIC INHIBITORS WITH EFFICACY FOR INHIBITING SULFIDE PRODUCTION IN HARSH ENVIRONMENTS” (MC (US) 3 LLC, priority 2020, published 2023)

Tests used:
[1] = system: Desulfovibrio gabonensis 700201; assay: H2S and Log (Growth) efficacy against SRB, 96-Well Plate Method; format: cell-based
Experimental: (§1) A lyophilized Desulfovibrio alaskensis 14563, Desulfovibrio longus 51456, and Desulfovibrio gabonensis 700201 pure cultures received from ATCC were resuspended individually in 500 ul of MB 1250. Aseptically, the content was transferred to a 5-mL tube of MB1250 medium. The cultures were incubated in an anaerobic chamber at 30° C. for 72 hrs. Subsequently, an individual stock culture with a final concentration of 25% glycerol were prepared by adding equal volumes of culture and 50% glycerol. 1 ml of the cultures were then transferred to 2-ml cryogenic vials and stored at −80° C. The purity of the stock cultures was evaluated through PCR, by amplifying the 16S rDNA region, and thus, it was verified that the original ATCC sample was a pure culture. 48-hour cultures of ATCC Desulfovibrio alaskensis 14563, Desulfovibrio longus 51456, and Desulfovibrio gabonensis 700201 were prepared in an anaerobic chamber. Each culture was prepared as a 1:10 culture by taking 1 milliliter (mL) of a pure culture and inoculating 9 milliliters (mL) of fresh MB1250 media. The Desulfovibrio alaskensis 14563 and Desulfovibrio gabonensis 700201 were all grown at 30° C. and the Desulfovibrio longus 51456 culture was grown at 35° C.
(§2) After the 48-hour incubation, 600 microliters (μL) were taken from each culture and optical density (OD) was measured using a Thermofisher Spectronic 200 Spectrophotometer at 600 nm. Each culture was diluted to 0.05 OD600 in fresh MB1250 media and added to the 96 well plates. Edge wells were not used due to their inherent variability and evaporation of the media. Each of the components were added at their respective concentrations for a final volume of 500 μL per well. In Table 3, 6 and 7, the concentrations of the compound used for the experiments are listed. Each experiment was done with at least three replicates for different treatments and non-treatment controls. From these test plates, 200 μL were taken and placed into two separate plates for 3 and 6 days. Plates were then sealed with a titer-top and placed into anaerobic boxes and incubated in an anaerobic incubator at 30° C.
(§3) At each time point, sulfide samples were taken, and enumeration plates were made. Enumeration plates were made to determine the log growth in each dosed sample. For this process, enumeration plates were prepared by adding 180 μL fresh media MB1250 containing 0.01 wt % ferrous ammonium sulfate. 20 μL was taken from each well of the challenge plates and transferred to the enumeration plates using a 20-200 μL multichannel pipette. Enumeration plates were mixed three times using the multichannel pipette and serial diluted down the plate tenfold (20 μL into 180 μL). This serial dilution process was repeated for all challenge plate rows giving a total of 6 enumeration plates.
(§4) After 7 days these enumeration plates were read. The ferrous ammonium sulfate in each plate would be converted to iron sulfide, changing wells with SRB growth from clear to black. By counting the number of black wells in a row, the log growth from the original well in the challenge plate can be determined.
(§5) To determine hydrogen sulfide production in each sample, sulfide samples were also taken from each challenge plate. From each well, 9 μL were taken and added to 60 μL of 2% zinc acetate with 0.02% acetic acid. Then, 180 μL of milliQ water was added. 60 μL of stock solution 1 containing 64% sulfuric acid, <1% Dimethyl-4-phenylenediamine (DMPD), water to 100% was added to each well on the plates. This was followed by 3 μL of stock solution 3 containing 50% Iron (III) chloride. All chemicals are ordered from Fisher Scientific and used as received. These were mixed three times and read after 15 minutes. The plates were read at 670 nm using a Biotek microplate reader. Absorbance readings were converted to mM using a standard curve and this was converted to parts per million using the molar mass of sulfur. […]

[2] = system: Desulfovibrio longus 51456; assay: as above; format: cell-based
Experimental: as §1, §2, §3, §4, §5

For O=C(CN1C(=O)c2cccc3cccc(c23)C1=O)NO [C1], the H2S ([1]; 3 days, 6.4 PPM) was 12.4 PPM, the “Log (Growth)” value ([1]; 3 days, 6.4 PPM) was 0.0 and the H2S ([1]; 3 days, 12.8 PPM) was 12.1 PPM. The “Log (Growth)” value ([1]; 3 days, 12.8 PPM) was 0.0, the H2S ([1]; 3 days, 25.6 PPM) was 11.1 PPM and the “Log (Growth)” value ([1]; 3 days, 25.6 PPM) was 0.0. The H2S ([1]; 3 days, 51.3 PPM) was 12.3 PPM, the “Log (Growth)” value ([1]; 3 days, 51.3 PPM) was 0.0 and the H2S ([1]; 3 days, 102.5 PPM) was 10.5 PPM. For the same compound, the “Log (Growth)” value ([1]; 3 days, 102.5 PPM) was 0.0, the H2S ([1]; 3 days, 205.0 PPM) was 10.0 PPM and the “Log (Growth)” value ([1]; 3 days, 205.0 PPM) was 0.0. The H2S ([1]; 6 days, 6.4 PPM) was 18.1 PPM, the “Log (Growth)” value ([1]; 6 days, 6.4 PPM) was 0.0 and the H2S ([1]; 6 days, 12.8 PPM) was 10.4 PPM. For the same compound, the “Log (Growth)” value ([1]; 6 days, 12.8 PPM) was 0.0, the H2S ([1]; 6 days, 25.6 PPM) was 9.4 PPM and the “Log (Growth)” value ([1]; 6 days, 25.6 PPM) was 0.0. For the same compound, the H2S ([1]; 6 days, 51.3 PPM) was 8.4 PPM, the “Log (Growth)” value ([1]; 6 days, 51.3 PPM) was 0.0 and the H2S ([1]; 6 days, 102.5 PPM) was 8.6 PPM. For the same compound, the “Log (Growth)” value ([1]; 6 days, 102.5 PPM) was 0.0, the H2S ([1]; 6 days, 205.0 PPM) was 8.5 PPM and the “Log (Growth)” value ([1]; 6 days, 205.0 PPM) was 0.0. For the same compound, the H2S ([2]; 3 days, 6.4 PPM) was 9.8 PPM, the “Log (Growth)” value ([2]; 3 days, 6.4 PPM) was 0.0 and the H2S ([2]; 3 days, 12.8 PPM) was 9.3 PPM. The “Log (Growth)” value ([2]; 3 days, 12.8 PPM) was 0.0, the H2S ([2]; 3 days, 25.6 PPM) was 9.1 PPM and the “Log (Growth)” value ([2]; 3 days, 25.6 PPM) was 0.0. For the same compound, the H2S ([2]; 3 days, 51.3 PPM) was 8.8 PPM, the “Log (Growth)” value ([2]; 3 days, 51.3 PPM) was 0.0 and the H2S ([2]; 3 days, 102.5 PPM) was 8.6 PPM. The “Log (Growth)” value ([2]; 3 days, 102.5 PPM) was 0.0, the H2S ([2]; 3 days, 205.0 PPM) was 8.7 PPM and the “Log (Growth)” value ([2]; 3 days, 205.0 PPM) was 0.0. For the same compound, the H2S ([2]; 6 days, 6.4 PPM) was 8.1 PPM, the “Log (Growth)” value ([2]; 6 days, 6.4 PPM) was 0.0 and the H2S ([2]; 6 days, 12.8 PPM) was 7.9 PPM. The “Log (Growth)” value ([2]; 6 days, 12.8 PPM) was 0.0, the H2S ([2]; 6 days, 25.6 PPM) was 7.3 PPM and the “Log (Growth)” value ([2]; 6 days, 25.6 PPM) was 0.0. The H2S ([2]; 6 days, 51.3 PPM) was 7.2 PPM, the “Log (Growth)” value ([2]; 6 days, 51.3 PPM) was 0.0 and the H2S ([2]; 6 days, 102.5 PPM) was 7.5 PPM. For the same compound, the “Log (Growth)” value ([2]; 6 days, 102.5 PPM) was 0.0, the H2S ([2]; 6 days, 205.0 PPM) was 8.1 PPM and the “Log (Growth)” value ([2]; 6 days, 205.0 PPM) was 0.0.
